Consider six compounds from ChEMBL document CHEMBL1201862, “PubChem BioAssay data set” (2004).

For test [1], the target named is G-protein coupled receptor 183 (Homo sapiens, UniProt P32249). Put plainly: SAR confirmation of small molecule antagonists of the EBI2 receptor via a luminescent beta-arrestin assa. It is filed as functional.
Test [2] concerns the target T1, RNA-binding protein pos-1 (Caenorhabditis elegans, UniProt G5EF15).
T1 sequence (G5EF15 whole entry): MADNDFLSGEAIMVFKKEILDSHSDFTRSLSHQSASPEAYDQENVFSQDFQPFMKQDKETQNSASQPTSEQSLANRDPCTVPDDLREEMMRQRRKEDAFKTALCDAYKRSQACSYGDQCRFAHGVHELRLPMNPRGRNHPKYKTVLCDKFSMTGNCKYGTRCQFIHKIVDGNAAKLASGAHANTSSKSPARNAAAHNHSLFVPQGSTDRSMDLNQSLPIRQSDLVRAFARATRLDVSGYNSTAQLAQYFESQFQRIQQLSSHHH
Nature of the test: disruptors of C. elegans POS-1 RNA interaction – biochemical, fluorescence polarization, dose response (AID 1964).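 Also: purified POS-1 fused to maltose binding protein made in E. coli; potency of compounds blocking POS-1 binding to fluorescent RNA.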

The target in test [3] is Albumin (Bos taurus, UniProt P02769). Put plainly: Counterscreen for inhibitors of T-cell receptor (TCR)-CD3 interaction: Fluorescence-based biochemical high throughput dose response assay to identify inhibitors of T-cell receptor (TCR)-CD3 interaction using a TAMRA-labeled BSA probe. It is filed as functional. Background: The purpose of a counterscreen is to sort out artefacts and off-target activity.

For test [4], the target named is RNA-editing ligase 1, mitochondrial (Trypanosoma brucei brucei, UniProt P86926). Put plainly: inhibition of trypanosome RNA editing ligase – biochemical, fluorescence, Trypanosoma brucei, dose response (AID 1117295). It is filed as functional.
The target in test [5] is T2, Zinc finger protein mex-5 (Caenorhabditis elegans, UniProt Q9XUB2).
T2 sequence (Q9XUB2 whole entry): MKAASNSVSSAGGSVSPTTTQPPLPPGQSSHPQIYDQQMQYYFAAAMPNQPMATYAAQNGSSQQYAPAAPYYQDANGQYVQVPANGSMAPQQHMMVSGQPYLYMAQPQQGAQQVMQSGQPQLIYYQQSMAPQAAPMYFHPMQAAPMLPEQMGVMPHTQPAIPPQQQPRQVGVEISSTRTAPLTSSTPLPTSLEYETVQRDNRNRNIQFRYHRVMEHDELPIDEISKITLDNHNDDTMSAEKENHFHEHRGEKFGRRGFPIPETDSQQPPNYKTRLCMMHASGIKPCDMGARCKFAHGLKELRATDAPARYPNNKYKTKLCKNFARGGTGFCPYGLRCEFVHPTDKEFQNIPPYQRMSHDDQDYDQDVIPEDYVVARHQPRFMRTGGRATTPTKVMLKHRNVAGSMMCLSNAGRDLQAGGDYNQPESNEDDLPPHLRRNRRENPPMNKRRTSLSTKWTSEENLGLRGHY
Nature of the test: potency of MEX-5 RNA-binding blockers – biochemical, C. elegans, fluorescence polarization, dose response (AID 1960). On the technique in general: Polarisation of emitted light reports the rotation of a fluorescent probe.

Test [6] deals with T3, Aminopeptidase N (Plasmodium falciparum FcB1/Columbia, UniProt O96935).
T3 sequence (O96935 whole entry): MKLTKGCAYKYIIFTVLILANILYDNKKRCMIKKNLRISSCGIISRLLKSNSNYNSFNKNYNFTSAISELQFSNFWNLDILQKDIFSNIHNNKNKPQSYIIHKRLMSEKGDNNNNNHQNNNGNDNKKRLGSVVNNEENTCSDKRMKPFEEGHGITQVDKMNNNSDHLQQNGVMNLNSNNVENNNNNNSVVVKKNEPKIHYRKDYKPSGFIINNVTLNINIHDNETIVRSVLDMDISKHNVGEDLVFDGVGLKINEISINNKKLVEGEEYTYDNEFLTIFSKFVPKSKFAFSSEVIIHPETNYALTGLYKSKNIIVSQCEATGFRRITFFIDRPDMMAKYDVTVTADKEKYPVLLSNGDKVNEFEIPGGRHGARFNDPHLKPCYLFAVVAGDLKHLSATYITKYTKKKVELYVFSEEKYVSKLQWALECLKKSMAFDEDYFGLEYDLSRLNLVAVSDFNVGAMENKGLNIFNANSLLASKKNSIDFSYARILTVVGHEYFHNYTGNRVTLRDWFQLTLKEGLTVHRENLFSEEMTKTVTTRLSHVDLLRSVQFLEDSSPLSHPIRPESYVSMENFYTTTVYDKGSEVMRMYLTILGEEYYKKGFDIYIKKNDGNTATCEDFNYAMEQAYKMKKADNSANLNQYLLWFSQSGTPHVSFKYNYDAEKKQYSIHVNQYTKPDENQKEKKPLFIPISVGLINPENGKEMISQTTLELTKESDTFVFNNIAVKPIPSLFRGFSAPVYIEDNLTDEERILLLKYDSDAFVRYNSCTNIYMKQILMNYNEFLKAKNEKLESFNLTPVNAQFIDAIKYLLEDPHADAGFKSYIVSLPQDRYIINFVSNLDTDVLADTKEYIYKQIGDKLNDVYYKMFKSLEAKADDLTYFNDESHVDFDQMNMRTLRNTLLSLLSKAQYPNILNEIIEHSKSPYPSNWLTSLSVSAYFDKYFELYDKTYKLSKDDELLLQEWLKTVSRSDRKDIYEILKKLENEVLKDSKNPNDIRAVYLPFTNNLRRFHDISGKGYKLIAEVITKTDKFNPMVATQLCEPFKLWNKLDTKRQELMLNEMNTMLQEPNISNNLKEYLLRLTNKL
Nature of the test: malaria alanyl aminopeptidase activity blockers – biochemical, fluorogenic H-Leu-NHMec substrate, 1536-well (AID 1445). Also on record: species or system Plasmodium falciparum 3D7, 3D7.

Test [7] has as its target T4, Low molecular weight phosphotyrosine protein phosphatase (Homo sapiens, UniProt P24666).
T4 sequence (P24666 whole entry): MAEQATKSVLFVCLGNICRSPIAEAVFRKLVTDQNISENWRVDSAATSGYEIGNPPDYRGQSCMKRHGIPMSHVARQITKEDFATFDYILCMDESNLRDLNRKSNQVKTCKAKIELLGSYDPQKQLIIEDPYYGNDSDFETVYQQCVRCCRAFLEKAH
Put plainly: inhibition of human LMPTP enzyme activity – biochemical, absorbance, pNPP substrate, LMPTP-A isoform, set 2, orthogonal assay, dose response (AID 743308). It counts as functional.

Test [8] addresses T4, Low molecular weight phosphotyrosine protein phosphatase. Nature of the test: inhibition of LMPTP-A enzymatic activity – biochemical, OMFP substrate, fluorescence intensity, set 2, dose response (AID 743307). It is filed as functional.
Test [9] is described as follows: viability loss in human Jurkat cells – cell-based, luminescence, cytotoxicity control for P. falciparum gametocyte viability project, dose response (AID 1117277).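 Also: potency reflects loss of cellular ATP meaning fewer viable cells.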 It counts as functional.
A short description of test [10]: viability inhibitors of stage V gametocytes – luminescence, dose response (AID 1117278).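 Also: gametocytes exposed to compound for 24 hours.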 It counts as functional, cell-based.
The test system of test [11] is HEK293. Put plainly: NOD2 signaling inhibitors in MDP-stimulated cells, cell-based, uHTS, luminescence (AID 2001). It is filed as functional. Conditions: Homo sapiens.
The test system of test [12] is HEK293. Nature of the test: cells. It counts as functional, cell-based. The following applies: Homo sapiens.
In test [13] the test system is HEK293. Nature of the test: cells. It counts as functional, cell-based. Conditions: Homo sapiens. The source holds these as a separate data set.
Test [14] deals with HEK293. Put plainly: inhibition of NOD1-driven NF-kB reporter – cell-based, luminescence, uHTS, primary screen (AID 1578). It counts as functional. The following applies: Homo sapiens.
A short description of test [15]: viability loss in Vero cells – cytotoxicity control for Vif-APOBEC3G degradation inhibitor project, dose response (AID 1117358). Conditions: Vero. It counts as functional.
The nature of test [16]: rise of 4N DNA cells, HeLa – IC50, dose response (AID 1117351). It counts as functional, cell-based.
Test [17] can be described thus: HCT116 cell viability decrease, GSK3B pretreatment – CellTiter-Glo, IC50, dose response (AID 1117339). The following applies: HCT-116. It counts as functional.
Test [18] in a line: SNU-C1 cell viability reduction, dose response, CellTiter-Glo luminescence (AID 1117323). It counts as functional, cell-based. A general note: In ATP-based viability assays light output follows the ATP content of the culture.
Test [19] can be described thus: IC50 of insulin release inhibition, rat insulinoma INS-1E line, 5 mM glucose, cell-based (AID 1117331). It counts as functional.
The nature of test [20]: cells. It is filed as functional, cell-based. The following applies: INS-1E.
The nature of test [21]: RKO cell viability reduction, dose response, CellTiter-Glo luminescence (AID 1117322). It counts as functional.
Test [22] in a line: CellTiter-Glo luminescence survival assay, SW480 colon tumor line, concentration-response curve, half-maximal inhibitory concentration (AID 1117338). It counts as functional.
Test [23] is described as follows: rise of 2N DNA cells, HeLa – IC50, dose response (AID 1117349). It counts as functional, cell-based.

Counter-ions that a name gives are not always drawn. Calls of active or inactive are those of the source. Where only a bound is given, the exact number is not on record here.

Sequence of RNA-editing ligase 1, mitochondrial (P86926 whole entry): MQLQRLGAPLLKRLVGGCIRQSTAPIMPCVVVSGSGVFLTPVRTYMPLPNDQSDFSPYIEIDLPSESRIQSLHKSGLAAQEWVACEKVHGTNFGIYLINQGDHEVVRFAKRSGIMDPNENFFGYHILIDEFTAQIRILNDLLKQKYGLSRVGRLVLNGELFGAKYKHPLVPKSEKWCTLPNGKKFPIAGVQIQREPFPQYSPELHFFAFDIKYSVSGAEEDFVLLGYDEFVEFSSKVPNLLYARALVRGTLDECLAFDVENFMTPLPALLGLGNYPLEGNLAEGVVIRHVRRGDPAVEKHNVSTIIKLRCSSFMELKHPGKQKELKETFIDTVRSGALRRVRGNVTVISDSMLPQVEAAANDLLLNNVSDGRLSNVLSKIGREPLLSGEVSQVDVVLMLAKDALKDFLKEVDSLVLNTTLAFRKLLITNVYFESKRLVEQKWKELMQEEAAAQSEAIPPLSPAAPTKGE
Sequence of Albumin (P02769 whole entry): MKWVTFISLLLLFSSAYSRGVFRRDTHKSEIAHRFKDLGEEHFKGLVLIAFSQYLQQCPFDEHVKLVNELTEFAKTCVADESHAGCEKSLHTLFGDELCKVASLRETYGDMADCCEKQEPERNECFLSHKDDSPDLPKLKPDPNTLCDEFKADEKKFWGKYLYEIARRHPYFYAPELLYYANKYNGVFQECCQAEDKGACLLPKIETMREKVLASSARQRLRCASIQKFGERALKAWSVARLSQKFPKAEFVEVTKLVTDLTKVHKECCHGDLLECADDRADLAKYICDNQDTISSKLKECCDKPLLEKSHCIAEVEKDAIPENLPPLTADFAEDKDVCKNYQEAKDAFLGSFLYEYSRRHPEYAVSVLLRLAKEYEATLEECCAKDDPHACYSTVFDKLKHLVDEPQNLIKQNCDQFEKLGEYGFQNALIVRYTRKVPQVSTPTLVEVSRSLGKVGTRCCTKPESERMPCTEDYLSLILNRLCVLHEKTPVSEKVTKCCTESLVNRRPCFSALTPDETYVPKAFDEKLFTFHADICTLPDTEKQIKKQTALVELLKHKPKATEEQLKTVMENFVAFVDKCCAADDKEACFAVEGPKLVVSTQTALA
Sequence of G-protein coupled receptor 183 (P32249 whole entry): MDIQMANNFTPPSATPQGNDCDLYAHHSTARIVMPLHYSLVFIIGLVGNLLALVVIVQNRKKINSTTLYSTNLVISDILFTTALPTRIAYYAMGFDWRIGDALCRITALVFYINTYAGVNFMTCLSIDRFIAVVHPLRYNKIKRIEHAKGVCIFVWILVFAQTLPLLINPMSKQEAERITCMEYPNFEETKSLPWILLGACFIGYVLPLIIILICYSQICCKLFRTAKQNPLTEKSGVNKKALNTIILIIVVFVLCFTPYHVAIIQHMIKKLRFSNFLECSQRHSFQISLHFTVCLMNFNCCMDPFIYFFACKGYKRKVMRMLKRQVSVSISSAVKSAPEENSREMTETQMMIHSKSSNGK

The term IC50 denotes the midpoint of a concentration-inhibition curve. Turning to `O=C(/C=C/c1ccc(F)cc1)N1CCN(S(=O)(=O)CCc2ccccc2)CC1`, in test [1], the IC50 was 0.00327 µM (active).

The EC50 is the concentration needed to bring the measured effect to its halfway point. As for `Cc1n[nH]c(S/C(=C/c2ccc(-c3ccc(C(=O)O)cc3)o2)C(=O)O)n1`, the EC50 in [2] is 4.1 µM (active); in [5], 1.45 µM (active). Moreover, the figures for the IC50 in [3], in [4] and in test [6] were > 94.2 µM (inactive), 77.9 µM (inactive) and 18.5 µM (active), respectively.

For the compound `CCN(CC)c1nc(-c2ccccc2)nc2ccccc12`, the IC50 is > 80 µM (inactive) in test [7] and 53.1 µM (inactive) in test [8].

As to `CC(C)Cc1nnc(NC(=O)CSc2nc(O)c(-c3ccccc3)c(O)n2)s1`, the IC50 in [9] is > 83.3 µM (inactive); in test [10], > 109 µM (inactive).

What is called CC50 is the concentration giving 50% cytotoxicity. As to `COc1ccc(NC(=O)c2cccc(S(=O)(=O)Nc3ccc(Br)cc3)c2)cn1`, the figures for the IC50 in [11], in test [12] and in test [13] were 8.65 µM (active), 17.3 µM (active) and > 20 µM (inactive), respectively. In addition, the EC50 in test [14] is 11.2 µM (active). Moreover, the CC50 in test [15] was 22.8 µM (active).

For the compound `CCN(CC)CCCC(C)Nc1c2ccc(Cl)cc2nc2ccc(OC)cc12` (stereo not drawn) [QUINACRINE HYDROCHLORIDE], the IC50 was > 10 µM (inactive) in test [16]; 4.48 µM (active) in test [17]; 3.84 µM (active) in [18]; 4.07 µM (active) in test [19]; > 33.3 µM (inactive) in test [20]; 3.42 µM (active) in test [21]. Moreover, the IC50 in [22] is 3.6 µM (active); in test [23], 2.16 µM (active).
